The values that follow are results of earlier work, collected in patent publication US12291505B2, “Methods for the synthesis of deuterated dextromethorphan” (AVANIR PHARMACEUTICALS, INC., priority 2016, dated 2025).

Data set [1] deals with N-methyl-D-aspartate (NMDA) receptor. Particulars: weak uncompetitive antagonist.
The target in another data set is sigma-1 (Homo sapiens, UniProt Q99720). Particulars: read-out: Ki, sigma-1; sigma-1 agonist.
Data set [2] deals with norepinephrine transporter (Homo sapiens, UniProt P23975). The note with it: read-out: Ki, norepinephrine transporter affinity.
In another data set the target is uptake of norepinephrine. Particulars: read-out: Ki, inhibition of uptake of norepinephrine.
For data set [3] the following is noted: co-administered with dextromethorphan.

Molecules are shown by their SMILES. pKi: −log10 of the molar value.

sigma-1, sequence (Q99720 whole entry): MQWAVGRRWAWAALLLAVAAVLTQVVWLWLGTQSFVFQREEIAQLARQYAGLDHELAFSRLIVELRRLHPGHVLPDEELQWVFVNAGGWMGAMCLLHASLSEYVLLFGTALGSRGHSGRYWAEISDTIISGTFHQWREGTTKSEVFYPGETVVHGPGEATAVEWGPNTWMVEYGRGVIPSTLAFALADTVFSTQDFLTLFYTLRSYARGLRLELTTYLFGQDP
norepinephrine transporter, sequence (P23975 whole entry, species assumed): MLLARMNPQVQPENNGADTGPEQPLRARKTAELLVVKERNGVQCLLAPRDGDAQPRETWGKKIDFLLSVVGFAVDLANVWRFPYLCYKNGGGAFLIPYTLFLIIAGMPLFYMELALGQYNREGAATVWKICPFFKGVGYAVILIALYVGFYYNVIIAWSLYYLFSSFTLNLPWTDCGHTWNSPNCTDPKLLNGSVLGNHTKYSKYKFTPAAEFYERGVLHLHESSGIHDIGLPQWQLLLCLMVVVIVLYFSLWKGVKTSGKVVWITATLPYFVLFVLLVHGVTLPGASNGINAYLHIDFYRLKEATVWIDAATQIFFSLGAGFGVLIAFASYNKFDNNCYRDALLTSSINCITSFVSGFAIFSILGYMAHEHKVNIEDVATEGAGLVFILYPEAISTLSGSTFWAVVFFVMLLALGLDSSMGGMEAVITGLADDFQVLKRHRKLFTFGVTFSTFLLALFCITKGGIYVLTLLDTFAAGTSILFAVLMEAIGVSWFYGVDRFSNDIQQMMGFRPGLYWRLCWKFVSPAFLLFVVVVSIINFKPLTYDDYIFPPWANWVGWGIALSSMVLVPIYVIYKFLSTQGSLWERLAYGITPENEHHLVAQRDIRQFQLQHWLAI

In the case of `COc1ccc2c(c1)[C@]13CCCC[C@@H]1[C@H](C2)N(C)CC3` [DM, (+)-3-methoxy-17-methyl-(9α,13α,14α)-morphinan], the pKi (usually the negative decadic logarithm of the Ki, by convention in mol/L) in data set [1] was 5.82; at sigma-1 it was 6.70; in data set [2], 4.89; at uptake of norepinephrine, 6.62.

As to `C=C[C@H]1C[N@@]2CC[C@H]1C[C@@H]2[C@@H](O)c1ccnc2ccc(OC)cc12` [Quinidine], the “effect on dextromethorphan in the blood” value in data set [3] is recorded as “greatly increases the quantity of dextromethorphan circulating in the blood”.
